Bridge positions count the residues as written; N and C are the ends. Square brackets hold non-standard residues; d marks the D form. Peptide text beside a SMILES is read from it. Hyp = O=C(O)[C@@H]1C[C@@H](O)CN1
Legend:
[1] = Inhibition of GABA-B receptor-mediated high voltage-activated Ca2+ channel current in Wistar rat DRG neurons by whole-cell patch clamp assay; conditions: DRG neuron
Oocyte = test: Inhibition of human alpha-9/rat alpha-10 nACHR expressed in Xenopus oocytes assessed as inhibition of acetylcholine-induced current by voltage clamp assay relative to RgIA; assay type: cell-based; conditions: dose or concentration not given here

**Q.** What does the source list for N=C(N)NCCC[C@@H]1NC(=O)[C@H](Cc2ccc(O)cc2)NC(=O)[C@H](CCCNC(=N)N)NC(=O)[C@@H]2CSSC[C@H](NC(=O)CN)C(=O)N[C@@H](CSSC[C@@H](C(=O)O)NC1=O)C(=O)N[C@@H](CO)C(=O)N[C@@H](CC(=O)O)C(=O)N1C[C@H](O)C[C@H]1C(=O)N[C@@H](CCCNC(=N)N)C(=O)N2 (H-GCCSD[Hyp]RCRYRC-OH; disulfide 2-8, 3-12)?
**A.** IC50 [1]: 20.5 nM; inhibition (Oocyte): 41%
